Experiment [1] can be described thus: Shell wheel test (corrosion inhibition). As to conditions: 50 ppm of a 40% inhibitor solution; salt water/petroleum, pH 3.5, 40 rpm, 70° C., 24 hours; from mass reduction vs blank. On the procedure: The compounds according to the invention were tested as corrosion inhibitors in the Shell wheel test. Coupons of carbon steel (DIN 1.1203 having 15 cm^2 surface area) were immersed in a salt water/petroleum mixture (9:1.5% NaCl solution, adjusted to pH 3.5 using acetic acid) and subjected to this medium at a rotation rate of 40 rpm at 70° C. for 24 hours. The dosage of the inhibitor was 50 ppm of a 40% solution of the inhibitor. The protection values were calculated from the mass reduction of the coupons, based on a blank value.
In the table which follows, “comparison 1” refers to a commercial residue amine, quat based on dicocoalkyldimethylammonium chloride and “comparison 2” to a commercial soya fatty acid amidopropyl-N,N-dimethylammonium carboxymethyl betaine described by EP-B-0 446 616 (prior art corrosion inhibitors).

The nature of experiment [2]: LPR test (corrosion inhibition, conditions similar to ASTM D 2776). On the set-up: concentration or dose not given beside the values. The protocol: The products were also tested in the LPR test (test conditions similar to ASTM D 2776).

For the substance “C14/15-oxo alcohol+7 EO-ether carboxamido-N,N-dimethylamino-N-propylammonium N-methylcarboxyl betaine [Example 34]”, the “ø Protection %” value in experiment [1] was 71.9%.

Take “lauryl+3 EO-ether carboxamido-N,N-dimethylamino-N-propylammonium N-methylcarboxyl betaine [Example 35]”: in experiment [2], the “Protection after 10 min” value amounted to 74.4%, the “Protection after 30 min” value was 80.2% and the “Protection after 60 min” value was 84.3%. For the same substance, in experiment [1], the “ø Protection %” value was 75.9%.

As to “oleyl+5 EO-ether carboxamido-N,N-dimethylamino-N-propylammonium N-methylcarboxyl betaine [Example 33]”, in experiment [2], the “Protection after 10 min” value stood at 75.6%, the “Protection after 30 min” value is 80.3% and the “Protection after 60 min” value was 82.8%. In addition, in experiment [1], the “ø Protection %” value stood at 70.7%.
